Measurements published in patent publication US9765074B2, “Inhibitors of the renal outer medullary potassium channel” (Merck Sharp & Dohme Corp., priority 2013, dated 2017).

These compounds were tested against T1, hROMK (hKir1.1) (Homo sapiens, UniProt P48048) (assay: Thallium Flux Assay (ROMK channel functional thallium flux, FLIPR-Tetra)). Conditions: HEK293 cells stably expressing hROMK (hKir1.1); 30 min compound incubation.
T1 construct: expressed in transfected cells
T1 sequence (P48048 1-391): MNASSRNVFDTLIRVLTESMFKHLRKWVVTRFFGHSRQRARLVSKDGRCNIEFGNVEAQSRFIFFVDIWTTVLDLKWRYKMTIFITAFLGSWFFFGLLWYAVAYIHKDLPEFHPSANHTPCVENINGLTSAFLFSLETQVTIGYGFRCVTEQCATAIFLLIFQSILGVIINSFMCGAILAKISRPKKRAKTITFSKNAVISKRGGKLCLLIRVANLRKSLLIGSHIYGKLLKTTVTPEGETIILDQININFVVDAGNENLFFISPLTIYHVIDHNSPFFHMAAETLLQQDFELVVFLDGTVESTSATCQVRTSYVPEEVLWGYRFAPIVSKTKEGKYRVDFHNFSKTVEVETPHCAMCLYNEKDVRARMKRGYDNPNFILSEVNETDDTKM
Assay type: cell-based
Summary of the method: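 HEK293 cells stably expressing hKir1.1, loaded with FluxOR dye for 90 min, then preincubated with compound for 30 min at ambient temperature with 0.3 mM ouabain and probenecid. Stimulated with 3 mM thallium/0.3 mM potassium (final); fluorescence read ~10 min. Normalized to 3 μM reference ROMK inhibitor; IC50 from inhibition of flux.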

Compound	IC50 [nM]
Cc1cc(-n2cnnn2)nnc1CCN1CCC2(CC1)C[C@H](C)N(C1=CC(=O)OC1)C2=O [Example 262, (3S)-3-methyl-8-{2-[4-methyl-6-(1H-tetrazol-1-yl)pyridazin-3-yl]ethyl}-2-(5-oxo-2,5-dihydrofuran-3-yl)-2,8-diazaspiro[4.5]decan-1-one]	4
CC1=C(N2C=CC3(CCN(CCc4ncc(-n5cnnn5)nc4C)CC3)C2=O)COC1=O [Example 263, 2-(4-methyl-5-oxo-2,5-dihydrofuran-3-yl)-8-{2-[3-methyl-5-(1H-tetrazol-1-yl)pyrazin-2-yl]ethyl}-1-oxo-2-aza-8-azoniaspiro[4.5]dec-3-ene]	10
C[C@H]1CC2(CCN(CCc3ccc(-n4cnnn4)nn3)CC2)C(=O)N1C1=CC(=O)OC1 [Example 264, (3S)-3-methyl-2-(5-oxo-2,5-dihydrofuran-3-yl)-8-{2-[6-(1H-tetrazol-1-yl)pyridazin-3-yl]ethyl}-2,8-diazaspiro[4.5]decan-1-one]	3
Cc1nc(-n2cnnn2)cnc1CCN1CCC2(CC1)CCN(C1=CC(=O)OC1)C2=O [Example 269, 8-{2-[3-methyl-5-(1H-tetrazol-1-yl)pyrazin-2-yl]ethyl}-2-(5-oxo-2,5-dihydrofuran-3-yl)-2,8-diazaspiro[4.5]decan-1-one]	20
C[C@H]1CC2(CCN(CCc3ncc(-n4cnnn4)nc3C3CC3)CC2)C(=O)N1C1=CC(=O)OC1 [Example 270, (S)-8-(2-(3-cyclopropyl-5-(1H-tetrazol-1-yl)pyrazin-2-yl)ethyl)-3-methyl-2-(5-oxo-2,5-dihydrofuran-3-yl)-2,8-diazaspiro[4.5]decan-1-one]	10
CCc1nc(-n2cnnn2)cnc1CCN1CCC2(CC1)C[C@H](C)N(C1=CC(=O)OC1)C2=O [Example 271, (S)-8-(2-(3-ethyl-5-(1H-tetrazol-1-yl)pyrazin-2-yl)ethyl)-3-methyl-2-(5-oxo-2,5-dihydrofuran-3-yl)-2,8-diazaspiro[4.5]decan-1-one]	5
CC1=C(N2CCC3(CCN(C[C@H](F)c4cnc(-n5cnnn5)cn4)CC3)C2=O)COC1=O [Example 276, (S)-8-(2-(5-(1H-Tetrazol-1-yl)pyrazin-2-yl)-2-fluoroethyl)-2-(4-methyl-5-oxo-2,5-dihydrofuran-3-yl)-2,8-diazaspiro[4.5]decan-1-one]	50
CC1=C(N2CCC3(CCN(C[C@@H](F)c4cnc(-n5cnnn5)cn4)CC3)C2=O)COC1=O [Example 277, 8-{(2R)-2-fluoro-2-[5-(1H-tetrazol-1-yl)pyrazin-2-yl]ethyl}-2-(4-methyl-5-oxo-2,5-dihydrofuran-3-yl)-1-oxo-2-aza-8-azoniaspiro[4.5]decane]	80
CC1=C(N2CCC3(CCN(C[C@H](F)c4ccc(-n5cnnn5)nn4)CC3)C2=O)COC1=O [Example 278, 8-{(2S)-2-fluoro-2-[6-(1H-tetrazol-1-yl)pyridazin-3-yl]ethyl}-2-(4-methyl-5-oxo-2,5-dihydrofuran-3-yl)-1-oxo-2-aza-8-azoniaspiro[4.5]decane]	30
CC1=C(N2CCC3(CCN(C[C@H](F)c4ccc(-n5cnnn5)cn4)CC3)C2=O)COC1=O [Example 279, 8-{(2S)-2-fluoro-2-[5-(1H-tetrazol-1-yl)pyridin-2-yl]ethyl}-2-(4-methyl-5-oxo-2,5-dihydrofuran-3-yl)-1-oxo-2-aza-8-azoniaspiro[4.5]decane]	20
CC1=C(N2CCC3(CCN(C[C@@H](F)c4ccc(-n5cnnn5)cn4)CC3)C2=O)COC1=O [Example 280, 8-{(2R)-2-fluoro-2-[5-(1H-tetrazol-1-yl)pyridin-2-yl]ethyl}-2-(4-methyl-5-oxo-2,5-dihydrofuran-3-yl)-1-oxo-2-aza-8-azoniaspiro[4.5]decane]	30
CO[C@H](CN1CCC2(CC1)CCN(C1=C(C)C(=O)OC1)C2=O)c1cnc(-n2cnnn2)cn1 [Example 281, 8-{(2R)-2-methoxy-2-[5-(1H-tetrazol-1-yl)pyrazin-2-yl]ethyl}-2-(4-methyl-5-oxo-2,5-dihydrofuran-3-yl)-1-oxo-2-aza-8-azoniaspiro[4.5]decane]	140
CO[C@@H](CN1CCC2(CC1)CCN(C1=C(C)C(=O)OC1)C2=O)c1ccc(-n2cnnn2)cn1 [Example 282, 8-{(2S)-2-methoxy-2-[5-(1H-tetrazol-1-yl)pyridin-2-yl]ethyl}-2-(4-methyl-5-oxo-2,5-dihydrofuran-3-yl)-1-oxo-2-aza-8-azoniaspiro[4.5]decane]	70
CO[C@@H](CN1CCC2(CC1)CCN(C1=C(C)C(=O)OC1)C2=O)c1cnc(-n2cnnn2)cn1 [Example 283]	60
CC1=C(N2CCC3(CCN(C[C@H](OC(C)C)c4ccc(-n5cnnn5)nc4)CC3)C2=O)COC1=O [Example 285, 8-{(2R)-2-(1-methylethoxy)-2-[6-(1H-tetrazol-1-yl)pyridin-3-yl]ethyl}-2-(4-methyl-5-oxo-2,5-dihydrofuran-3-yl)-1-oxo-2-aza-8-azoniaspiro[4.5]decane]	50
CO[C@H](CN1CCC2(CC1)C[C@@H](C)N(C1=C(C)C(=O)OC1)C2=O)c1ccc(-n2cnnn2)nc1 [Example 287, (3R)-8-{(2S)-2-methoxy-2-[6-(1H-tetrazol-1-yl)pyridin-3-yl]ethyl}-3-methyl-2-(4-methyl-5-oxo-2,5-dihydrofuran-3-yl)-1-oxo-2-aza-8-azoniaspiro[4.5]decane]	100
CO[C@@H](CN1C2CCC1CC1(CCN(C3=C(C)C(=O)OC3)C1=O)C2)c1ccc(-n2cnnn2)nc1 (stereo partly drawn) [Example 288, (1R,3R,5S)-S-((R)-2-(6-(1H-tetrazol-1-yl)pyridin-3-yl)-2-methoxyethyl)-1′-(4-methyl-5-oxo-2,5-dihydrofuran-3-yl)-8-azaspiro[bicyclo[3.2.1]octane-3,3′-pyrrolidin]-2′-one]	30
CO[C@@H](CN1CCC2(CC1)CCN(C1=C(C)C(=O)OC1)C2=O)c1ccc(-n2cnnn2)nc1 [Example 289, (R)-8-(2-(6-(1H-tetrazol-1-yl)pyridin-3-yl)-2-methoxyethyl)-2-(4-methyl-5-oxo-2,5-dihydrofuran-3-yl)-2,8-diazaspiro[4.5]decan-1-one]	20
